The record followed here is patent publication US7553969B1, “Substituted phenethylamine derivatives” (Chugai Seiyaku Kabushiki Kaisha, priority 1999, dated 2009).

Where a SMILES comes first, the peptide text is derived from it. [ ]: non-standard residue; d: D form. The star is where a group is joined. NMeTyr(3-tBu) = CN[C@@H](Cc1ccc(O)c(C(C)(C)C)c1)C(=O)O; Tyr(3-tBu) = CC(C)(C)c1cc(C[C@H](N)C(=O)O)ccc1O; NMePhe(4-F) = CN[C@@H](Cc1ccc(F)cc1)C(=O)O; Tyr(3-F) = N[C@@H](Cc1ccc(O)c(F)c1)C(=O)O; Phe(3-F) = N[C@@H](Cc1cccc(F)c1)C(=O)O; Phe(4-F) = N[C@@H](Cc1ccc(F)cc1)C(=O)O; NMeV = CN[C@H](C(=O)O)C(C)C; NHiPr = CC(C)N*

The test system of test [1] is specimen of longitudinal muscle in the duodenum extracted from a rabbit (motilin-induced contraction). Nature of the test: Action on the motilin-induced contraction of a specimen of longitudinal muscle in the duodenum extracted from a rabbit. The conditions noted are these: organ bath, Krebs solution 28° C.; for Kb: Oryctolagus cuniculus, read-out: Contraction suppressing test, pA2 (converted). The procedure: Action on the Contraction of a Specimen of Longitudinal Muscle in the Duodenum Extracted from a Rabbit
The action on the motilin-induced contraction of a specimen of longitudinal muscle in the duodenum extracted from a rabbit was investigated by the following method. A duodenum specimen (5×15 mm) extracted from a slaughtered rabbit was suspended in an organ bath (10 ml) such that the longitudinal muscle would run vertically; the bath was filled with a Krebs solution kept at 28° C. A mixed gas (95% O2 and 5% CO2) was continuously bubbled into the Krebs solution and the contraction of the duodenum specimen was recorded isotonically (with a 1-g load) via an isotonic transducer (ME-3407, ME Commercial, Tokyo, Japan). The degree of contraction was expressed in relative values, with the contraction by acetylcholine at a dose of 10^−4 M being taken as 100%. The activity of the compound was calculated as pA2 value indicating its effect on the dose-dependent muscle contraction by the motilin put into the organ bath.

A further test has as its target T1, motilin receptor (Oryctolagus cuniculus, UniProt G1T803).
T1 construct: homogenized in 50 mM Tris buffer to prepare a protein sample; from tissue; host or cells: rabbit duodenum homogenate (mucous membrane separated)
Nature of the test: Motilin receptor binding test (125I motilin, rabbit duodenum protein sample). The conditions noted are these: 125I motilin 25 pM, concentration reducing specific binding by 50%. The procedure: Motilin receptor binding test
A motilin receptor binding test was conducted in the following manner [Vantrappen et al., Regul. Peptides, 15, 143 (1986)]. The duodenum was extracted from a slaughtered rabbit, had the mucous membrane separated and homogenized in 50 mM Tris buffer to prepare a protein sample. The protein sample was incubated together with ^125I motilin 25 pM and thereafter the radioactivity bound to the protein was measured. Specific binding was defined as the difference between the radioactivity in the case of adding a great excess amount of motilin (10^−7 M) and that in the case of no adding. The activity of the compound was expressed by IC50 (in nM), as the concentration sufficient to reduce the specific binding by 50%.

The term IC50 denotes the midpoint of a concentration-inhibition curve.

T1 sequence (G1T803 1-400): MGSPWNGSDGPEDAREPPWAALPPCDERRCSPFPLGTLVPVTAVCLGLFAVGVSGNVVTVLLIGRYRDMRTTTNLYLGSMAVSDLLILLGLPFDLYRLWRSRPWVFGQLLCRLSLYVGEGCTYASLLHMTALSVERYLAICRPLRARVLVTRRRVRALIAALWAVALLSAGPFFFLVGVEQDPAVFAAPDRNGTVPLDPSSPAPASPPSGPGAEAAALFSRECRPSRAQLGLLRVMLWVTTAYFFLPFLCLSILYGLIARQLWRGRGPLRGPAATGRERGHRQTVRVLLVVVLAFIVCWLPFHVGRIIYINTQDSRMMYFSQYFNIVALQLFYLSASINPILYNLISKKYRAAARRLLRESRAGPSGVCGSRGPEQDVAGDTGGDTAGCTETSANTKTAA

For the molecule `CCN[C@@H](Cc1ccc(F)cc1)C(=O)N(C)[C@H](C(=O)N(CC)[C@@H](Cc1ccc(O)c(C(C)(C)C)c1)C(=O)NCO)C(C)C` [Example 129, N-Et-Phe(4-F)-N-Me-Val-N-Et-Tyr(3-tBu)-NHCH2OH], in test [1], the Kb is 3.16 nM. Besides, at motilin receptor, the half-maximal inhibitory concentration (IC50) is 4 nM.
In the same order, the values of `Cc1cc(=O)[nH]c([C@H](Cc2ccc(O)c(C(C)(C)C)c2)NC(=O)[C@H](C(C)C)N(C)C(=O)[C@@H](N)Cc2ccc(F)cc2)n1` (single isomer, unassigned) [Example 19, 2-(1-(2-((2-amino-3-(4-fluorophenyl)propionyl)-N-methylamino)-3-methyl-butyrylamino)-2-(3-tert-butyl-4-hydroxyphenyl)ethyl)-6-methyl-4-pyrimidinone] are 2 nM and 2.2 nM.
For `CC(C)C(C(=O)N(C)C(Cc1ccc(O)c(C(C)(C)C)c1)C(=O)NCS(C)(=O)=O)N(C)C(=O)C(N)Cc1ccc(F)cc1` (stereo not drawn) [Example 64, Phe(4-F)-N-Me-Val-N-Me-Tyr(3-tBu)-NHCH2SO2CH3], the “Contraction suppressing test, pA2” value in test [1] is listed as 9.0. The molecule further gave an IC50 on motilin receptor of 1 nM.
For `CCN[C@@H](Cc1ccc(F)cc1)C(=O)N(C)[C@H](C(=O)N[C@@H](Cc1ccc(O)c(C(C)(C)C)c1)C(=O)NC)C(C)C` [Example 33, N-Et-Phe(4-F)-N-Me-Val-Tyr(3-tBu)-NHMe], in test [1], the Kb was 3.98 nM. At motilin receptor, this molecule displayed an IC50 of 1.7 nM.
In the same order, the values of `CCNC(=O)[C@H](Cc1ccc(O)c(C(C)(C)C)c1)N(C)C(=O)[C@H](C(C)C)N(C)C(=O)[C@H](Cc1ccc(F)cc1)NC` [Example 105, N-Me-Phe(4-F)-N-Me-Val-N-Me-Tyr(3-tBu)-NHEt] (H-[NMePhe(4-F)]-[NMeV]-[NMeTyr(3-tBu)]-NHEt) are 0.158 nM and 0.31 nM.
For `CC(C)[C@@H](C(=O)N[C@@H](Cc1ccc(O)c(C(C)(C)C)c1)c1ncno1)N(C)C(=O)[C@@H](N)Cc1ccc(F)cc1` [Example 22, 2-((2-amino-3-(4-fluorophenyl)propionyl)-N-methylamino)-3-methylbutyric acid 2-(3-t-butyl-4-hydroxyphenyl)-1-(1,2,4-oxadiazol-5-yl)ethylamide], the Kb in test [1] is 5.01 nM. At motilin receptor, the IC50 was found to be 0.52 nM.
For `CN[C@@H](Cc1ccc(F)cc1)C(=O)N(C)[C@H](C(=O)N(C)[C@@H](Cc1ccc(O)c(C(C)(C)C)c1)C(N)=O)C(C)C` [Example 34, N-Me-Phe(4-F)-N-Me-Val-N-Me-Tyr(3-tBu)-NH2] (H-[NMePhe(4-F)]-[NMeV]-[NMeTyr(3-tBu)]-NH2), the Kb in test [1] is 0.398 nM. Moreover, the IC50 on motilin receptor amounted to 1.5 nM.
In the same order, the values of `CCNC(=O)[C@H](Cc1ccc(O)c(C(C)(C)C)c1)N(CC)C(=O)[C@H](C(C)C)N(C)C(=O)[C@@H](N)Cc1ccc(F)cc1` [Example 107, Phe(4-F)-N-Me-Val-N-Et-Tyr(3-tBu)-NHEt] are 2 nM and 0.39 nM.
In the same order, the values of `CC(C)[C@@H](C(=O)N(C)[C@@H](Cc1ccc(O)c(C(C)(C)C)c1)C(N)=O)N(C)C(=O)[C@@H](N)Cc1cccc(F)c1` [Example 4, Phe(3-F)-N-Me-Val-N-Me-Tyr(3-tBu)-NH2] (H-[Phe(3-F)]-[NMeV]-[NMeTyr(3-tBu)]-NH2) are 5.01 nM and 1.6 nM.
On the same counts, the results for `CCNC(=O)[C@H](Cc1ccc(O)c(C(C)(C)C)c1)N(CC)C(=O)[C@H](C(C)C)N(C)C(=O)[C@H](Cc1ccc(F)cc1)NCC` [Example 109, N-Et-Phe(4-F)-N-Me-Val-N-Et-Tyr(3-tBu)-NHEt] are 2 nM and 0.17 nM.
On to `CCN(C(=O)[C@H](C(C)C)N(C)C(=O)[C@@H](N)Cc1ccc(F)cc1)[C@@H](Cc1ccc(O)c(C(C)(C)C)c1)C(=O)NCO` [Example 127, Phe(4-F)-N-Me-Val-N-Et-Tyr(3-tBu)-NHCH2OH], for which the Kb in test [1] is 2 nM. The molecule also registered an IC50 on motilin receptor of 1.7 nM.
On the same counts, the results for `CCNC(=O)[C@H](Cc1ccc(O)c(C(C)(C)C)c1)NC(=O)[C@H](C(C)C)N(C)C(=O)[C@@H](N)Cc1ccc(F)cc1` [Example 101, Phe(4-F)-N-Me-Val-Tyr(3-tBu)-NHEt] (H-[Phe(4-F)]-[NMeV]-[Tyr(3-tBu)]-NHEt) are 1.26 nM and 0.24 nM.
On the same counts, the results for `CC(C)[C@@H](C(=O)N[C@H](CO)Cc1ccc(O)c(C(C)(C)C)c1)N(C)C(=O)[C@@H](N)Cc1ccc(F)cc1` [Example 17, 2-(2-((2-amino-3-(4-fluorophenyl)propionyl)-N-methylamino)-3-methyl-butyrylamino)-3-(3-tBu-4-hydroxyphenyl)propanol] are 0.794 nM and 0.7 nM.
In the same order, the values of `CC(C)NC(=O)[C@H](Cc1ccc(O)c(C(C)(C)C)c1)NC(=O)[C@H](C(C)C)N(C)C(=O)[C@@H](N)Cc1ccc(F)cc1` [Example 120, Phe(4-F)-N-Me-Val-Tyr(3-tBu)-NH-i-Pr] (H-[Phe(4-F)]-[NMeV]-[Tyr(3-tBu)]-NHiPr) are 1 nM and 0.27 nM.
For the molecule `CC(C)[C@@H](C(=O)N[C@H](CNS(N)(=O)=O)Cc1ccc(O)c(C(C)(C)C)c1)N(C)C(=O)[C@@H](N)Cc1ccc(F)cc1` [Example 12, 2-(2-(2-amino-3-(4-fluorophenylpropanoyl-N-methylamino)-3-methyl)butyrylamino)-3-(3-tert-butyl-4-hydroxyphenyl)propylsulfamide], the Kb in test [1] is 0.501 nM. The IC50 on motilin receptor was 0.52 nM.
In the case of `CN(C(=O)[C@@H](N)Cc1ccc(F)cc1)[C@@H](Cc1ccc(F)cc1)C(=O)N(C)[C@@H](Cc1ccc(O)c(C(C)(C)C)c1)C(N)=O` [Example 157, Phe(4-F)-N-Me-Phe(4-F)-N-Me-Tyr(3-tBu)-NH2] (H-[Phe(4-F)]-[NMePhe(4-F)]-[NMeTyr(3-tBu)]-NH2), the Kb in test [1] was 7.94 nM. Further, the IC50 on motilin receptor was 6.1 nM.
On the same counts, the results for `CC(C)[C@@H](C(=O)N(C)[C@@H](Cc1ccc(O)c(C(C)(C)C)c1)C(N)=O)N(C)C(=O)[C@@H](N)Cc1ccc(O)cc1F` [Example 26, Tyr(2-F)-N-Me-Val-N-Me-Tyr(3-tBu)-NH2] are 10 nM and 7.3 nM.
Turning to `CCN[C@@H](Cc1ccc(F)cc1)C(=O)N(C)[C@H](C(=O)N(C)[C@@H](Cc1ccc(O)c(C(C)(C)C)c1)C(=O)NCO)C(C)C` [Example 126, N-Et-Phe(4-F)-N-Me-Val-N-Me-Tyr(3-tBu)-NHCH2OH], in test [1], the Kb is 0.631 nM. This molecule also showed an IC50 at motilin receptor of 1.9 nM.
On the same counts, the results for `CC(C)[C@@H](C(=O)N(C)[C@@H](Cc1ccc(O)c(C(C)(C)C)c1)C(N)=O)N(C)C(=O)[C@@H](N)Cc1ccc(O)c(F)c1` [Example 27, Tyr(3-F)-N-Me-Val-N-Me-Tyr(3-tBu)-NH2] (H-[Tyr(3-F)]-[NMeV]-[NMeTyr(3-tBu)]-NH2) are 2.51 nM and 1.2 nM.
In the same order, the values of `CC(C)[C@@H](C(=O)N[C@H](CC(N)=O)Cc1ccc(O)c(C(C)(C)C)c1)N(C)C(=O)[C@@H](N)Cc1ccc(F)cc1` [Example 15, 2-((2-amino-3-(4-fluorophenyl)propionyl)-N-methylamino)-3-methylbutyric acid 2-(3-t-butyl-4-hydroxyphenyl)-1-carbamidomethylethylamide] are 3.16 nM and 0.82 nM.
In the same order, the values of `CCNC(=O)[C@H](Cc1ccc(O)c(C(C)(C)C)c1)N(CC)C(=O)[C@H](C(C)C)N(C)C(=O)[C@H](Cc1ccc(F)cc1)NC` [Example 108, N-Me-Phe(4-F)-N-Me-Val-N-Et-Tyr(3-tBu)-NHEt] are 1 nM and 0.43 nM.
